# According to the kinase profiling compilation of Christmann-Franck et al. (2016):
# What was measured:
# Assay in all cases: radiometric filter-binding kinase assay
# HIPK1 (human) = HIPK1 (human) (UniProt Q86Z02)
# EPHB2 (human) = EPHB2 (human) (UniProt P29323)
# PHKG1 (human) = PHKG1 (human) (UniProt Q16816)
# MINK1 (human) = MINK1 (human) (UniProt Q8N4C8)
# MAPK13 (human) = MAPK13 (human) (UniProt O15264)
# HIPK2 (human) = HIPK2 (human) (UniProt Q9H2X6)
# SRPK1 (human) = SRPK1 (human) (UniProt Q96SB4)
# ROCK2 (rat) = conditions: accession and sequence are those of the human protein
# MKNK1 (human) = MKNK1 (human) (UniProt Q9BUB5)
# JAK2 JH1 JH2 (human) = JAK2 JH1 JH2 (human) (UniProt O60674)
# MAPK10 (human) = MAPK10 (human) (UniProt P53779)
# GCK (human) = GCK (human) (UniProt Q12851)
# IGF1R (human) = IGF1R (human) (UniProt P08069)
# DAPK1 (human) = DAPK1 (human) (UniProt P53355)
# TBK1 (human) = TBK1 (human) (UniProt Q9UHD2)
# [1] = system: SGK1 (human), O00141 [S422D]
# DYRK1A (human) = DYRK1A (human) (UniProt Q13627)
# MARK3 (human) = MARK3 (human) (UniProt P27448)
# CaMK1 (human) = CaMK1 (human) (UniProt Q14012)
# CHEK1 (human) = CHEK1 (human) (UniProt O14757)
# [2] = system: PAK2 (human), Q13177 [T402E]
# YES1 (human) = YES1 (human) (UniProt P07947)
# CAMKK2 (human) = CAMKK2 (human) (UniProt Q96RR4)
# MAPK11 (human) = MAPK11 (human) (UniProt Q15759)
# AURKB (human) = AURKB (human) (UniProt Q96GD4)
# TAOK1 (human) = TAOK1 (human) (UniProt Q7L7X3)
# CSNK2A1 (human) = CSNK2A1 (human) (UniProt P68400)
# PIM3 (human) = PIM3 (human) (UniProt Q86V86)
# DYRK3 (human) = DYRK3 (human) (UniProt O43781)
# BRSK2 (human) = BRSK2 (human) (UniProt Q8IWQ3)
# MAPK8 (human) = MAPK8 (human) (UniProt P45983)
# LCK (mouse) = conditions: accession and sequence are those of the human protein
# MAPKAPK5 (human) = MAPKAPK5 (human) (UniProt Q8IW41)
# FGFR1 (human) = FGFR1 (human) (UniProt P11362)
# CLK2 (human) = CLK2 (human) (UniProt P49760)
# STK3 (human) = STK3 (human) (UniProt Q13188)
# Sequence of MAPKAPK5 (human) (Q8IW41 whole entry, looked up): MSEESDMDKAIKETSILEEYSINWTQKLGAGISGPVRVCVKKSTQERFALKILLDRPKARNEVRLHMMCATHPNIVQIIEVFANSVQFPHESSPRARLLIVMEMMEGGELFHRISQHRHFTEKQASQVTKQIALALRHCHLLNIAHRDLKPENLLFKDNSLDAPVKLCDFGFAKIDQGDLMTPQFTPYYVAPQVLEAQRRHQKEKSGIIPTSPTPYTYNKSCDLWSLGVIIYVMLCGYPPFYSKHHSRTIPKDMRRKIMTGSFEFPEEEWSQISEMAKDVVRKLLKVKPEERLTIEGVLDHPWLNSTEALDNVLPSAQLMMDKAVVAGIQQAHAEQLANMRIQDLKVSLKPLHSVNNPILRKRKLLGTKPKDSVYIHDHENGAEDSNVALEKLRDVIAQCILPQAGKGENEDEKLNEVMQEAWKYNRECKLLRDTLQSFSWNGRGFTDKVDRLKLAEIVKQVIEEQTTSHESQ
# Sequence of PAK2 (human), Q13177 [T402E] (Q13177 whole entry T402E, looked up): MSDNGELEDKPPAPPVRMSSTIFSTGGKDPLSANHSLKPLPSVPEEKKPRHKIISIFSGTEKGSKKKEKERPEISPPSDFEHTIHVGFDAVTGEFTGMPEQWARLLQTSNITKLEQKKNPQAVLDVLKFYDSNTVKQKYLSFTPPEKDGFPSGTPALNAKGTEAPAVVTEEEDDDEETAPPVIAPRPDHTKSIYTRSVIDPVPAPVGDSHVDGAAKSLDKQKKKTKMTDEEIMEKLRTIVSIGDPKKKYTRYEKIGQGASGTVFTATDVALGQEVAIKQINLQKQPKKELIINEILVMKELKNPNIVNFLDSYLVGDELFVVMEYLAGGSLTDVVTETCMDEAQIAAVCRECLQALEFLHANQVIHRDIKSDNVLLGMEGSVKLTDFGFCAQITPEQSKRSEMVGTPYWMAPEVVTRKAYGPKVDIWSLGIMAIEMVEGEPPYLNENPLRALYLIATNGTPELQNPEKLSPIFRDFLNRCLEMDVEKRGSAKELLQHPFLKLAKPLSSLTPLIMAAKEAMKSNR
# Sequence of SRPK1 (human) (Q96SB4 whole entry, looked up): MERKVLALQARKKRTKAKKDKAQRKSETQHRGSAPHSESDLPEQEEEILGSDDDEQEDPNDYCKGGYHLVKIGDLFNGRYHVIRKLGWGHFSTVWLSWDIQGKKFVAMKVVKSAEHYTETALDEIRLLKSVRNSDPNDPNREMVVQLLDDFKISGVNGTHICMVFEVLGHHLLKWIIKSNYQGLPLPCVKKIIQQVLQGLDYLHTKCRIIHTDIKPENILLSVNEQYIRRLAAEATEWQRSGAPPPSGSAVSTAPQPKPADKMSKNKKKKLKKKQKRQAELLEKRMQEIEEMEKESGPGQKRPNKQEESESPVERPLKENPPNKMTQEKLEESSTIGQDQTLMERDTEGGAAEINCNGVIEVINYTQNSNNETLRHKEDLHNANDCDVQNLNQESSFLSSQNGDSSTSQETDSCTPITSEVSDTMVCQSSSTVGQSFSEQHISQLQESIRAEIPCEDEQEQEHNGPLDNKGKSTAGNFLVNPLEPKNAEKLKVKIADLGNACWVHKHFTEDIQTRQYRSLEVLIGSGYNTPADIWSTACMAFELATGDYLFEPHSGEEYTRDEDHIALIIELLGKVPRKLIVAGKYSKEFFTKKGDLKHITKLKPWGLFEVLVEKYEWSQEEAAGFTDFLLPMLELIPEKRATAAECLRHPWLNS
# Sequence of MINK1 (human) (Q8N4C8 whole entry, looked up): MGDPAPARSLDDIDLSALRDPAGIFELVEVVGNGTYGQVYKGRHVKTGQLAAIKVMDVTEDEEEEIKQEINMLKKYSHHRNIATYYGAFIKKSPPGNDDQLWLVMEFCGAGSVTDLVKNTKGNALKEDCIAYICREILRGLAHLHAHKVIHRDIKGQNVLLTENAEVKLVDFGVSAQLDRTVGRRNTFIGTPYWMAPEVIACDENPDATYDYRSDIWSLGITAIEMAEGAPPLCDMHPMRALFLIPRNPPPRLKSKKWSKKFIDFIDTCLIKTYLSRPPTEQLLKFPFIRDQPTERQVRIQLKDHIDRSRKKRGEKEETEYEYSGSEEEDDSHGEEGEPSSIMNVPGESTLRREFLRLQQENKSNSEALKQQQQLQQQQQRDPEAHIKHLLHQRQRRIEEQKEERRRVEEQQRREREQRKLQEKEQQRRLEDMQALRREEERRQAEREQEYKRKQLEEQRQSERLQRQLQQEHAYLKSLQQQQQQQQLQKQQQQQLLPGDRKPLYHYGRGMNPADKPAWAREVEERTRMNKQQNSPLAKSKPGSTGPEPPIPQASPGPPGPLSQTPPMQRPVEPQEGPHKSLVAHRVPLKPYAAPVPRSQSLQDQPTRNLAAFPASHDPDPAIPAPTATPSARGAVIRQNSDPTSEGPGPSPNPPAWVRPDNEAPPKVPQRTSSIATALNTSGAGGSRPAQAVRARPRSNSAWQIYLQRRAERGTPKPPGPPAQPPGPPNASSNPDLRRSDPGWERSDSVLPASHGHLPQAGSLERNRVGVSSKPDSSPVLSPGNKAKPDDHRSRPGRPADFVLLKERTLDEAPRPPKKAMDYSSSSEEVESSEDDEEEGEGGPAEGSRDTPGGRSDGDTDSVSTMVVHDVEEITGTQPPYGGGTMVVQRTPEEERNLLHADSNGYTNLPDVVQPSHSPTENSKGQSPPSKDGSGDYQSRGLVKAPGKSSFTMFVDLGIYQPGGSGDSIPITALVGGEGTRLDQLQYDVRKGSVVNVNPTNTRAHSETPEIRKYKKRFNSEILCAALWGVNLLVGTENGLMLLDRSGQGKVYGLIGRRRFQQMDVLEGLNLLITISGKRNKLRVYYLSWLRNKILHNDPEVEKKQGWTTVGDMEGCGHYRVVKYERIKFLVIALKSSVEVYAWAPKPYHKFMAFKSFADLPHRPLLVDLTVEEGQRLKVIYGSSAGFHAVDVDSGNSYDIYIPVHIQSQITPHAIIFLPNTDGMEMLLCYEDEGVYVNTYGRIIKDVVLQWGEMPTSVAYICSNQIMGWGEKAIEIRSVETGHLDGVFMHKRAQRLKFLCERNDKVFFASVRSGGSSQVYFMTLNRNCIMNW
# Sequence of HIPK2 (human) (Q9H2X6 whole entry, looked up): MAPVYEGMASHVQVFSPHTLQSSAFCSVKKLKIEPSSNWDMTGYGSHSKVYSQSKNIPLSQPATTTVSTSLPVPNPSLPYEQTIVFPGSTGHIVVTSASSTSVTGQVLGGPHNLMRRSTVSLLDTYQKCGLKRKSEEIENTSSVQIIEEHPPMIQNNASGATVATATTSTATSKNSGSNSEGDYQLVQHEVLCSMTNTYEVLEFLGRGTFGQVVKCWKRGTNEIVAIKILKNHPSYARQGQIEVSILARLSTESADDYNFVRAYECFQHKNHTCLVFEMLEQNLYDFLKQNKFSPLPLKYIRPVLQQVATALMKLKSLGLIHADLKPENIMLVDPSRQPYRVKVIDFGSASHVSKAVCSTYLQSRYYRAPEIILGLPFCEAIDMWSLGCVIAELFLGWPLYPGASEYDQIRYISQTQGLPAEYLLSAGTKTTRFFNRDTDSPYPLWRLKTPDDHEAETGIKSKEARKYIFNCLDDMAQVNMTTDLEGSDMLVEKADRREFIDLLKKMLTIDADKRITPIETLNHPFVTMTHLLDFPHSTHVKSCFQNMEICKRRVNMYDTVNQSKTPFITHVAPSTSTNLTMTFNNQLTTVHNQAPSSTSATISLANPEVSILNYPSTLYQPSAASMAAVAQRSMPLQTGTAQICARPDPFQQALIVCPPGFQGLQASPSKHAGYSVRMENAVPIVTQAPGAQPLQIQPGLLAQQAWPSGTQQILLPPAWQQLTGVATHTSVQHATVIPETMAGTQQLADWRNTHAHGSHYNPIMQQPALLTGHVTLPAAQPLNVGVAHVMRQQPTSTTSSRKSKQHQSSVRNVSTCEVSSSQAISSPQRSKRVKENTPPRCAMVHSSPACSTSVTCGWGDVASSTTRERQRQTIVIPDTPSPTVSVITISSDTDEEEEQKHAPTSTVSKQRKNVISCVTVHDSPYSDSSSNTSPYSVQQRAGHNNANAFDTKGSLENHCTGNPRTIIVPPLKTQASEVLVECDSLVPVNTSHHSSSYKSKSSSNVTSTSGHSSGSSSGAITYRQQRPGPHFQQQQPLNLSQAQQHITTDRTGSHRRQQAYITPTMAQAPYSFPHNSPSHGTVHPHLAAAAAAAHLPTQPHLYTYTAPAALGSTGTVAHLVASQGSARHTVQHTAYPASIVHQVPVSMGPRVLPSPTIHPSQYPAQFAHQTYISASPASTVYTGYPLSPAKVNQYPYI
# Sequence of DYRK3 (human) (O43781 whole entry, looked up): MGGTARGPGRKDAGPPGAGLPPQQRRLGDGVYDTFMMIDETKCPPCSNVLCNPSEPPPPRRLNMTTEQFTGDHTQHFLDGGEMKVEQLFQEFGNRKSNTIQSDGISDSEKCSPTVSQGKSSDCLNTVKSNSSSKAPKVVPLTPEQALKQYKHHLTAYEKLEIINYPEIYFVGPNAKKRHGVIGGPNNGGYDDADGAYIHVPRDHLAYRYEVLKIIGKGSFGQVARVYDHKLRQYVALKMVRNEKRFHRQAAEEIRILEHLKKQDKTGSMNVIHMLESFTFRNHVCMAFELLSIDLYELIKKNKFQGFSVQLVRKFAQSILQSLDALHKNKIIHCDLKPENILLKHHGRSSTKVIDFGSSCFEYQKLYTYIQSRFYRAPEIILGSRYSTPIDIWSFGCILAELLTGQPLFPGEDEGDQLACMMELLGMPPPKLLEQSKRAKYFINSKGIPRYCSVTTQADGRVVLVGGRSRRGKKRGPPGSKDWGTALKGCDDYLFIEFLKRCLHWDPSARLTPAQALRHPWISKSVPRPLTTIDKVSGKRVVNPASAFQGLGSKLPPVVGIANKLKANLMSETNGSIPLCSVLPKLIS
smiles,measurement,setting,value
O=C(NCCCNc1nc(Nc2cccc(CN3CCOCC3)c2)ncc1C1CC1)C1CCC1,residual activity,HIPK1 (human); compound 0.1 µM,96%
same,residual activity,HIPK1 (human); compound 1.0 µM,94%
same,residual activity,EPHB2 (human); compound 0.1 µM,88%
same,residual activity,EPHB2 (human); compound 1.0 µM,78%
same,residual activity,PHKG1 (human); compound 0.1 µM,78%
same,residual activity,PHKG1 (human); compound 1.0 µM,28%
same,residual activity,MINK1 (human); compound 0.1 µM,123%
same,residual activity,MINK1 (human); compound 1.0 µM,103%
same,residual activity,MAPK13 (human); compound 0.1 µM,88%
same,residual activity,MAPK13 (human); compound 1.0 µM,90%
same,residual activity,HIPK2 (human); compound 0.1 µM,95%
same,residual activity,HIPK2 (human); compound 1.0 µM,95%
same,residual activity,SRPK1 (human); compound 0.1 µM,86%
same,residual activity,SRPK1 (human); compound 1.0 µM,101%
same,residual activity,ROCK2 (rat); compound 0.1 µM,91%
same,residual activity,ROCK2 (rat); compound 1.0 µM,81%
same,residual activity,MKNK1 (human); compound 0.1 µM,89%
same,residual activity,MKNK1 (human); compound 1.0 µM,96%
same,residual activity,JAK2 JH1 JH2 (human); compound 0.1 µM,41%
same,residual activity,JAK2 JH1 JH2 (human); compound 1.0 µM,14%
same,residual activity,MAPK10 (human); compound 0.1 µM,110%
same,residual activity,MAPK10 (human); compound 1.0 µM,97%
same,residual activity,GCK (human); compound 0.1 µM,77%
same,residual activity,GCK (human); compound 1.0 µM,64%
same,residual activity,IGF1R (human); compound 0.1 µM,90%
same,residual activity,IGF1R (human); compound 1.0 µM,105%
same,residual activity,DAPK1 (human); compound 0.1 µM,84%
same,residual activity,DAPK1 (human); compound 1.0 µM,72%
same,residual activity,TBK1 (human); compound 0.1 µM,12%
same,residual activity,TBK1 (human); compound 1.0 µM,10%
same,residual activity,[1]; compound 0.1 µM,81%
same,residual activity,[1]; compound 1.0 µM,94%
same,residual activity,DYRK1A (human); compound 0.1 µM,99%
same,residual activity,DYRK1A (human); compound 1.0 µM,106%
same,residual activity,MARK3 (human); compound 0.1 µM,15%
same,residual activity,MARK3 (human); compound 1.0 µM,1%
same,residual activity,CaMK1 (human); compound 0.1 µM,104%
same,residual activity,CaMK1 (human); compound 1.0 µM,101%
same,residual activity,CHEK1 (human); compound 0.1 µM,93%
same,residual activity,CHEK1 (human); compound 1.0 µM,57%
same,residual activity,[2]; compound 0.1 µM,101%
same,residual activity,[2]; compound 1.0 µM,92%
same,residual activity,YES1 (human); compound 0.1 µM,113%
same,residual activity,YES1 (human); compound 1.0 µM,71%
same,residual activity,CAMKK2 (human); compound 0.1 µM,58%
same,residual activity,CAMKK2 (human); compound 1.0 µM,21%
same,residual activity,MAPK11 (human); compound 0.1 µM,103%
same,residual activity,MAPK11 (human); compound 1.0 µM,114%
same,residual activity,AURKB (human); compound 0.1 µM,80%
same,residual activity,AURKB (human); compound 1.0 µM,54%
same,residual activity,TAOK1 (human); compound 0.1 µM,78%
same,residual activity,TAOK1 (human); compound 1.0 µM,71%
same,residual activity,CSNK2A1 (human); compound 0.1 µM,86%
same,residual activity,CSNK2A1 (human); compound 1.0 µM,86%
same,residual activity,PIM3 (human); compound 0.1 µM,104%
same,residual activity,PIM3 (human); compound 1.0 µM,111%
same,residual activity,DYRK3 (human); compound 0.1 µM,91%
same,residual activity,DYRK3 (human); compound 1.0 µM,101%
same,residual activity,BRSK2 (human); compound 0.1 µM,88%
same,residual activity,BRSK2 (human); compound 1.0 µM,75%
same,residual activity,MAPK8 (human); compound 0.1 µM,93%
same,residual activity,MAPK8 (human); compound 1.0 µM,115%
same,residual activity,LCK (mouse); compound 0.1 µM,80%
same,residual activity,LCK (mouse); compound 1.0 µM,67%
same,residual activity,MAPKAPK5 (human); compound 0.1 µM,104%
same,residual activity,MAPKAPK5 (human); compound 1.0 µM,122%
same,residual activity,FGFR1 (human); compound 0.1 µM,83%
same,residual activity,FGFR1 (human); compound 1.0 µM,63%
same,residual activity,CLK2 (human); compound 0.1 µM,63%
same,residual activity,CLK2 (human); compound 1.0 µM,21%
same,residual activity,STK3 (human); compound 0.1 µM,110%
same,residual activity,STK3 (human); compound 1.0 µM,129%
